In patent US9782429B2, “Formulation having mobilizing activity” (GENTIUM SPA, priority 2000, dated 2017):

Tested on: white blood cells (WBC)
Experiment: Effect of G-CSF and/or defibrotide on the amount of white blood cells in murine blood
Assay type: in vivo, BALB/c mice
Settings: mice, IP injection, 5 days treatment; FIG. 1
Description: This experiment was carried out to evaluate the effect of the administration of G-CSF and/or defibrotide (DEF) on the amount of white blood cells (WBC) present in murine blood. BALB/c mice from 6 to 8 weeks old and having a body weight of from 20 to 25 g were subjected to intraperitoneal (IP) injections of G-CSF (5 μg/mouse/day), DEF (1 mg/mouse/day), or a combination of G-CSF (5 μg/mouse/day) and increasing doses of DEF (1, 10, 15 mg/mouse/day). A saline solution, buffered to 0.1%, of […] (PBS/MSA) was administered by IP injection to the control mice which had not received G-CSF and/or DEF. The mice were treated for 5 days and sacrificed after 3 or 5 days of treatment, or 3 days after therapy had ceased. The following symbols were used to represent each group of mice: G-CSF (▪) (n=24), DEF 1 (◯) (n=3), G-CSF+DEF 1 (♦) (n=13), G-CSF+DEF 10 (▴) (n=6), G-CSF+DEF 15 (●) (n=23). The mean white blood cell count in PBS/MSA in the control mice was 2.87±0.2×10^6/ml of blood; the data ate expressed as mean± standard error of the mean (SEM).

defibrotide was tested, and the “amount of white blood cells in circulation in murine blood” value was “does not have a positive influence”.
